Results on 18 molecules are retold here after patent US5674879A, “Compositions including and methods of using conformationally restricted angiotensin II antagonist” (G.D. Searle & Co., priority 1995, dated 1997).

The pIC50 is −log10 of the IC50, conventionally taken in molar units.

pIC50: −log10 of the molar value. Like-named read-outs stand apart in the source and are kept apart here.

For assay [1], the target named is smooth muscle angiotensin II receptor. As to the kind of experiment: Assay A: Angiotensin II Binding Activity (displacement of 125I-angiotensin II, rat uterine membrane preparation). The conditions noted are these: 50% displacement of specifically bound 125I-AII, rat uterine membranes, 25° C., 60 min, pH 7.5. As to the method: Assay A: Angiotensin II Binding Activity
Compounds of the invention were tested for ability to bind to the smooth muscle angiotensin II receptor using a rat uterine membrane preparation. Angiotensin II (AII) was purchased from Peninsula Labs. ^125 I-angiotensin II (specific activity of 2200 Ci/mmol) was purchased from Du Pont-New England Nuclear. Other chemicals were obtained from Sigma Chemical Co. This assay was carried out according to the method of Douglas et al [Endocrinology, 106, 120-124 (1980)]. Rat uterine membranes were prepared from fresh tissue. All procedures were carried out at 4° C. Uteri were stripped of fat and homogenized in phosphate-buffered saline at pH 7.4 containing 5 mM EDTA. The homogenate was centrifuged at 1500×g for 20 min., and the supernatant was recentrifuged at 100,000×g for 60 min. The pellet was resuspended in buffer consisting of 2 mM EDTA and 50 mM Tris-HCl (pH 7.5) to a final protein concentration of 4 mg/ml. Assay tubes were charged with 0.25 ml of a solution containing 5 mM MgCl2, 2 mM EDTA, 0.5% bovine serum albumin, 50 mM Tris-HCl, pH 7.5 and ^125 I-AII (approximately 10^5 cpm) in the absence or in the presence of unlabelled ligand. The reaction was initiated by the addition of membrane protein and the mixture was incubated at 25° C. for 60 min. The incubation was terminated with ice-cold 50 mM Tris-HCl (pH 7.5) and the mixture was filtered to separate membrane-bound labeled peptide from the free ligand. The incubation tube and filter were washed with ice-cold buffer. Filters were assayed for radioactivity in a Micromedic gamma counter. Nonspecific binding was defined as binding in the presence of 10 μM of unlabelled AII. Specific binding was calculated as total binding minus nonspecific binding. The receptor binding affinity of an AII antagonist compound was indicated by the concentration (IC50) of the tested AII antagonist which gives 50% displacement of the total specifically bound ^125 I-AII from the high affinity AII receptor. Binding data were analyzed by a nonlinear least-squares curve fitting program.

The target in assay [2] is T1, rabbit aortic rings (angiotensin II contraction) (Oryctolagus cuniculus, UniProt P34976).
T1 construct: The thoracic aorta was removed, cleaned of adherent fat and connective tissue and then cut into 3-mm ring segments; from tissue; host or cells: rabbit thoracic aorta rings, endothelium removed
T1 sequence (P34976 1-359): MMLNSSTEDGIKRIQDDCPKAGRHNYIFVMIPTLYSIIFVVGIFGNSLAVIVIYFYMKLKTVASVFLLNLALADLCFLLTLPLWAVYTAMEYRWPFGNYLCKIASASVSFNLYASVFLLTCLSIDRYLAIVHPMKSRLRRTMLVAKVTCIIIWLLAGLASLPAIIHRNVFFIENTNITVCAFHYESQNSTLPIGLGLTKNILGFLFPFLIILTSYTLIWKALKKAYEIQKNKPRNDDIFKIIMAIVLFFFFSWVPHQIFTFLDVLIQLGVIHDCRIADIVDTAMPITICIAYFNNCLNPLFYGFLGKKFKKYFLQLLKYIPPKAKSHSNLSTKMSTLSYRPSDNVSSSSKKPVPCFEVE
As to the kind of experiment: Assay B: In Vitro Vascular Smooth Muscle Response for AII (rabbit aortic rings). Type of assay: cell-based, rabbit (male New Zealand white). The conditions noted are these: rabbit aorta rings, antagonist 10^-5 M for 5 min, 37° C., read-out: Assay B pA2 (converted). As to the method: Assay B: In Vitro Vascular Smooth Muscle-Response for AII
The compounds of the invention were tested for antagonist activity in rabbit aortic rings. Male New Zealand white rabbits (2-2.5 kg) were sacrificed using an overdose of pentobarbital and exsanguinated via the carotid arteries. The thoracic aorta was removed, cleaned of adherent fat and connective tissue and then cut into 3-mm ring segments. The endothelium was removed from the rings by gently sliding a rolled-up piece of filter paper into the vessel lumen. The rings were then mounted in a water-jacketed tissue bath, maintained at 37° C., between moveable and fixed ends of a stainless steel wire with the moveable end attached to an FT03 Grass transducer coupled to a Model 7D Grass Polygraph for recording isometric force responses. The bath was filled with 20 ml of oxygenated (95% oxygen/5% carbon dioxide) Krebs solution of the following composition (mM): 130 NaCl, 15 NaHCO3, […], 1.2 NaH2 PO4, 1.2 MgSO4, 2.5 CaCl2, and 11.4 glucose. The preparations were equilibrated for one hour before approximately one gram of passive tension was placed on the rings. Angiotensin II concentration-response curves were then recorded (3×10^-10 to 1×10^-5 M). Each concentration of AII was allowed to elicit its maximal contraction, and then AII was washed out repeatedly for 30 minutes before rechallenging with a higher concentration of AII. Aorta rings were exposed to the test antagonist at 10^-5 M for 5 minutes before challenging with AII. Adjacent segments of the same aorta ring were used for all concentration-response curves in the presence or absence of the test antagonist. The effectiveness of the test compound was expressed in terms of pA2 values and were calculated according to H. O. Schild [Br. J. Pharmacol. Chemother., 2, 189-206 (1947)]. The pA2 value is the concentration of the antagonist which increases the IC50 value for AII by a factor of two. Each test antagonist was evaluated in aorta rings from two rabbits.

[3] abbreviates: first of two values in the cell (rings from two rabbits).
Setting [4] is: second of two values in the cell (rings from two rabbits).

In assay [1], `CCCCc1ncc2n1[C@@H](c1ccc(-c3ccccc3-c3nn[nH]n3)cc1)CC[C@H]2CC(=O)O` (relative stereo) [Example 20, 3-Butyl-5,6,7,8-tetrahydro-5-[2'-(1H-tetrazol-5-yl)[1,1'-biphenyl]-4-yl]imidazo[1,5-a]pyridin-cis-8-acetic acid] had a negative-log IC50 (pIC50) of 6.62. The Kb is 129 nM in assay [2] (setting [3]) and 141 nM in assay [2] (setting [4]).

For `CCCCc1nc(CCCC)n2c1C(N1C(=O)CCC1=O)CCC2c1ccc(-c2ccccc2-c2nnn[nH]2)cc1` (stereo not shown) [Example 8, 1-[1,3-Dibutyl-5,6,7,8-tetrahydro-5-[2'-(1H-tetrazol-5-yl)[1,1'-biphenyl]-4-yl]imidazo[1,5-a]pyridin-8-yl]-2,5-pyrrolidinedione], the negative logarithm of the IC50 (pIC50) in assay [1] is 7.57.

Take `CCCCc1nc(CCCC)n2c1C(=CC(=O)O)CCC2c1ccc(-c2ccccc2-c2nnn[nH]2)cc1` (stereo not shown) [Example 7, [1,3-Dibutyl-6,7-dihydro-5-[2'-(1H-tetrazol-5-yl)[1,1'-biphenyl]-4-yl]imidazo[1,5-a]pyridin-8(5H)-ylidene]acetic acid]: in assay [1], the pIC50 is 4.82.

Turning to `CCCCc1ncc2n1C(c1ccc(-c3ccccc3-c3nnn[nH]3)cc1)CCC2=CC(=O)OC(C)(C)C` (stereo not shown) [Example 15, 1,1-Dimethylethyl [3-butyl-6,7-dihydro-5-[2'-(1H-tetrazol-5-yl)[1,1'-biphenyl]-4-yl]imidazo[1,5-a]pyridin-8(5H)-ylidene]acetate], the pIC50 in assay [1] was 6.80. The Kb was 347 nM in assay [2] (setting [3]) and 186 nM in assay [2] (setting [4]).

As to `CCCCc1nc(CCCC)n2c1C(c1ccccc1)=CCC2c1ccc(-c2ccccc2-c2nnn[nH]2)cc1` (stereo not shown) [Example 6, 1,3-Dibutyl-5,6-dihydro-8-phenyl-5-[2'-(1H-tetrazol-5-yl)[1,1'-biphenyl]-4-yl]imidazo[1,5-a]pyridine], the pIC50 in assay [1] was 5.55.

Molecule `CCCCc1nc(CCCC)n2c1C(NC(=O)CCC(=O)NN)CCC2c1ccc(-c2ccccc2-c2nn[nH]n2)cc1` (stereo not shown) [Example 9] showed a pIC50 in assay [1] of 7.36. Further, the Kb in assay [2] (setting [3]) is 70.8 nM; in assay [2] (setting [4]) it was 57.5 nM.

In turn, `CCCCc1ncc2n1[C@H](c1ccc(-c3ccccc3-c3nnn[nH]3)cc1)CC[C@@H]2OCc1ccccc1` (relative stereo) [Example 24, 3-Butyl-5,6,7,8-tetrahydro-5-[2'-(1H-tetrazol-5-yl)[1,1'-biphenyl]-4-yl]-cis-8-phenylmethoxy-imidazo[1,5-a]pyridine] had a pIC50 in assay [1] of 7.44.

For `CCCCc1nc(CCCC)n2c1C=CCC2c1ccc(-c2ccccc2-c2nnn[nH]2)cc1` (stereo not shown) [Example 1, 1,3-Dibutyl-5,6-dihydro-5-[2'-(1H-tetrazol-5-yl)[1,1'-biphenyl]-4-yl]imidazo[1,5-a]pyridine], the negative-log IC50 (pIC50) in assay [1] was 6.72. The Kb was 398 nM in assay [2] (setting [3]) and 537 nM in assay [2] (setting [4]).

On to `CCCCc1nc(CCCC)n2c1CCCC2c1ccc(-c2ccccc2-c2nnn[nH]2)cc1` (stereo not shown) [Example 3, 1,3-Dibutyl-5,6,7,8-tetrahydro-5-[2'-(1H-tetrazol-5-yl)[1,1'-biphenyl]-4-yl]imidazo[1,5-a]pyridine], for which, in assay [1], the pIC50 is 6.57. Further, the values for the Kb in assay [2] (setting [3]) and in assay [2] (setting [4]) were 53.7 nM and 224 nM, respectively.

Regarding `CCCCc1ncc2n1C(c1ccc(-c3ccccc3-c3nnn[nH]3)cc1)CC=C2` (stereo not shown) [Example 11, 3-Butyl-5,6-dihydro-5-[2'-(1H-tetrazol-5-yl)[1,1'-biphenyl]-4-yl]imidazo[1,5-a]pyridine], the negative logarithm of the IC50 (pIC50) in assay [1] is 6.92.

With `CCCCc1nc(CCCC)n2c1C=C(Br)CC2c1ccc(-c2ccccc2-c2nnn[nH]2)cc1` (stereo not shown) [Example 2, 7-Bromo-1,3-dibutyl-5,6-dihydro-5-[2'-(1H-tetrazol-5-yl)[1,1'-biphenyl]-4-yl]imidazo[1,5-a]pyridine], the pIC50 in assay [1] was 5.68. Further, the Kb in assay [2] (setting [3]) is 1450 nM; in assay [2] (setting [4]), 263 nM.

Molecule `CCCCc1ncc2n1C(c1ccc(-c3ccccc3-c3nn[nH]n3)cc1)CCC2=O` (stereo not shown) [Example 12, 3-Butyl-5,6-dihydro-5-[2'-(1H-tetrazol-5-yl)[1,1'-biphenyl]-4-yl]imidazo[1,5-a]pyridin-8(5H)-one] gave a negative-log IC50 (pIC50) in assay [1] of 6.96. The Kb in assay [2] (setting [3]) is 219 nM; in assay [2] (setting [4]) it was 89.1 nM.

For `CCCCc1ncc2n1[C@@H](c1ccc(-c3ccccc3-c3nn[nH]n3)cc1)CC[C@H]2CC(=O)OC(C)(C)C` (relative stereo) [Example 19, 1,1-Dimethylethyl 3-butyl-5,6,7,8-tetrahydro-5-[2'-(1H-tetrazol-5-yl)[1,1'-biphenyl]-4-yl]imidazo[1,5-a]pyridin-cis-8-acetate], in assay [1], the negative-log IC50 (pIC50) is 7.17. The Kb in assay [2] (setting [3]) was 70.8 nM; in assay [2] (setting [4]), 141 nM.

In assay [1], `CCCCc1ncc2n1C(c1ccc(-c3ccccc3-c3nnn[nH]3)cc1)CC=C2CC(=O)OC(C)(C)C` (stereo not shown) [Example 17, 1,1-Dimethylethyl 3-butyl-5,6-dihydro-5-[2'-(1H-tetrazol-5-yl)[1,1'-biphenyl]-4-yl]imidazo[1,5-a]pyridin-8-acetate] had a pIC50 of 7.39. The Kb is 16.2 nM in assay [2] (setting [3]) and 53.7 nM in assay [2] (setting [4]).

For `CCCCc1ncc2n1[C@@H](c1ccc(-c3ccccc3-c3nn[nH]n3)cc1)CC[C@H]2O` (relative stereo) [Example 13, 3-Butyl-5,6,7,8-tetrahydro-5-[2'-(1H-tetrazol-5-yl)[1,1'-biphenyl]-4-yl]imidazo[1,5-a]pyridin-cis-8-ol], in assay [1], the negative-log IC50 (pIC50) is 7.64. Also, the Kb in assay [2] (setting [3]) was 100 nM; in assay [2] (setting [4]), 138 nM.

In turn, `CCCCc1ncc2n1[C@@H](c1ccc(-c3ccccc3-c3nn[nH]n3)cc1)CC[C@@H]2O` (relative stereo) [Example 14, 3-Butyl-5,6,7,8-tetrahydro-5-[2'-(1H-tetrazol-5-yl)[1,1'-biphenyl]-4-yl]imidazo[1,5-a]pyridin-trans-8-ol] gave a pIC50 in assay [1] of 6.92. For the same molecule, the Kb in assay [2] (setting [3]) was 331 nM; in assay [2] (setting [4]) it was 550 nM.

In turn, `CCCCc1ncc2n1C(c1ccc(-c3ccccc3-c3nnn[nH]3)cc1)CC=C2CC(=O)O` (stereo not shown) [Example 18, 3-Butyl-5,6-dihydro-5-[2'-(1H-tetrazol-5-yl)[1,1'-biphenyl]-4-yl]imidazo[1,5-a]pyridin-8-acetic acid] gave a pIC50 in assay [1] of 6.70.

In assay [1], `CCCCc1nc(CCCC)n2c1C=CCCC2c1ccc(-c2ccccc2-c2nnn[nH]2)cc1` (stereo not shown) [Example 10, 1,3-Dibutyl-6,7-dihydro-5-[2'-(1H-tetrazol-5-yl)[1,1'-biphenyl]-4-yl]-5H-imidazo[1,5-a]azepine] showed a pIC50 of 6.48.
